Here are results for 16 compounds from patent US9096615B2, “Bridged bicyclic amino thiazine dioxide compounds as inhibitors of beta-secretase and methods of use thereof” (AMGEN INC., priority 2013, dated 2015).

Where two headings read alike, the source gives them in different places. Bounds are passed on as bounds.

For one experiment, the target named is T1, Cathepsin D (Cat D) (Homo sapiens, UniProt P07339).
T1 construct: made in house; host or cells: CHO cells
Put plainly: In vitro enzymatic Cathepsin D (Cat D) FRET assay. It is filed as biochemical. The settings on record: read-out: CatD IC50. On the procedure:
In Vitro Enzymatic Cathepsin D (Cat D) FRET (Fluorescence Resonance Energy Transfer) Assay
Recombinant Cat D was expressed in CHO cells. The assay buffer for CathepsinD is 0.05 M citrate pH 3.5, 10% DMSO final, 5 mM CHAPS. The Cat D enzyme (9 nM) is pre-incubated for one hour with inhibitors, typically in about 1 uL of DMSO according to a serial dilution, is added thereto. The assays are effectively started by the addition of different FRET substrates (20 nM for Cat D) and the combination is incubated for one hour. The FRET assay is terminated with by addition of Tris buffer, which raises the pH to neutrality, and the fluorescence is determined. The FRET substrate is a peptide with commercially available fluorophore and quencher, on opposite sides of the BACE cleavage site. The Cat D substrate peptide sequence is based on sequence #1 of Table 1 from Gulnik et al. FEBS Letters v413 p 379-384 1997. Proteolytic cleavage of the FRET substrate releases quenching of fluorescence (Cat D excitation 500 nm and emission 580 nm). […]
Where available, the in-vitro Cat D FRET assay data for each of the Examples, conducted by the first procedure, is provided in Tables 1 and 3. For example, the compound of example 28 has a Cat D IC50 value of >400 uM.

The target of a further experiment is BACE1 (Homo sapiens, UniProt P56817). Put plainly: In vitro enzymatic BACE FRET assay. It is filed as biochemical. How it is done: In Vitro Enzymatic BACE FRET (Fluorescence Resonance Energy Transfer) Assay
Chain of BACE1 (P56817 46-501, species assumed): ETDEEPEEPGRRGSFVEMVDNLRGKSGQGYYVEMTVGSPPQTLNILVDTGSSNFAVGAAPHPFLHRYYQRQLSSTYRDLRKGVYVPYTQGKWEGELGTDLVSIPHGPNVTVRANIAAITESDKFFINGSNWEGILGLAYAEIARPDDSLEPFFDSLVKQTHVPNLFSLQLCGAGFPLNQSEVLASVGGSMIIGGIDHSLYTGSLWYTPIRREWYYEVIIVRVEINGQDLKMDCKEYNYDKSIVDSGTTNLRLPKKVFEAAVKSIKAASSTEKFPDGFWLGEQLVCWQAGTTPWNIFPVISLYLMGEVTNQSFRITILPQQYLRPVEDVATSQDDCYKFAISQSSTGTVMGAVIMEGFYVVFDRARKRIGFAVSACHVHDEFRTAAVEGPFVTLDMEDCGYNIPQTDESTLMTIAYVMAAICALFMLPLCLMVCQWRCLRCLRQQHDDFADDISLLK
Enzyme Assay Data in the Example Table I
The assay buffer used in this screen is 0.05 M acetate, pH 4.2, 10% DMSO final, 100 uM genapol (which is a nonionic detergent, below its Critical Micelle Concentration). The Beta Secretase enzyme (0.2 nM) is pre-incubated for one hour with inhibitors, typically in about 1 uL of DMSO according to a serial dilution, are added thereto. This assay is effectively started by the addition of FRET substrate (50 nM) and the combination is incubated for one hour. The FRET assay is terminated with by addition of Tris buffer, which raises the pH to neutrality, and the fluorescence is determined. The FRET substrate is a peptide with commercially available fluorophore and quencher, on opposite sides of the BACE cleavage site. Proteolytic cleavage of the FRET substrate releases quenching of fluorescence (excitation 488 nm and […]).

In experiment [1] the test system is Aβ40 in conditioned medium of cells stably expressing Amyloid Precursor Protein (APP). The experiment in a line: In vitro BACE cell-based assay (HEK cell assay, Aβ40 sandwich ELISA). The settings on record: Homo sapiens, HEK293. How it is done:
In Vitro BACE Cell-Based Assay
The cell-based assay measures inhibition or reduction of Aβ40 in conditioned medium of test compound treated cells expressing amyloid precursor protein.
Cells stably expressing Amyloid Precursor Protein (APP) were plated at a density of 40K cells/well in 96 well plates (Costar). The cells were cultivated for 24 hours at 37° C. and 5% CO2 in DMEM supplemented with 10% FBS. The test compounds were then added to cells in 10-point dose response concentrations with the starting concentration being either 100 μM or 10 μM. The compounds were diluted from stock solutions in DMSO and the final DMSO concentration of the test compounds on cells was 0.1%. After 24 h of incubation with the test compounds the supernatant conditioned media was collected and the Aβ 40 levels were determined using a sandwich ELISA. The IC50 of the compound was calculated from the percent of control or percent inhibition of Aβ 40 as a function of the concentration of the test compound.
The sandwich ELISA to detect Aβ 40 was performed in 96 well microtiter plates, which were pre-treated with goat anti-rabbit IgG (Pierce). The capture and detecting antibody pair that were used to detect Aβ 40 from cell supernatants were affinity purified pAb40 (Biosource) and biotinylated 6E10 (Signet Labs Inc.), respectively. The optimal concentration for the pAb40 antibody was 3 μg/ml in Superblock/TBS (Pierce) that was supplemented with 0.05% Tween 20 (Sigma). Optimal concentration for the detection antibody 6E10-biotinylated was 0.5 μg/ml in Superblock/TBS (Pierce) that had been supplemented with 2% normal goat serum and 2% normal mouse serum.
Cellular supernatants were incubated with the capture antibody for 3 h at 4° C., followed by 3 wash steps in TBS-tween (0.05%). The detecting antibody incubation was for 2 h at 4° C., again followed by the wash steps as described previously. The final readout of the ELISA is Time-Resolved Fluorescence (counts per minute) using Delfia reagents Streptavidin-Europium and Enhancement solutions (Perkin Elmer) and the Victor 2 multilabel counter (Perkin Elmer).
On the technique in general: ELISA stands for enzyme-linked immunosorbent assay.

Where [2] appears, read: average IC50, read-out: BACE1 Enzyme assay IC50.
Where [3] appears, read: average IC50, read-out: BACE1 cell assay IC50.
Where [4] appears, read: read-out: BACE1 FRET assay IC50.
[5] abbreviates: Aβ40, 24 h incubation, read-out: HEK cell assay IC50.

T1 sequence (P07339 65-412, species assumed): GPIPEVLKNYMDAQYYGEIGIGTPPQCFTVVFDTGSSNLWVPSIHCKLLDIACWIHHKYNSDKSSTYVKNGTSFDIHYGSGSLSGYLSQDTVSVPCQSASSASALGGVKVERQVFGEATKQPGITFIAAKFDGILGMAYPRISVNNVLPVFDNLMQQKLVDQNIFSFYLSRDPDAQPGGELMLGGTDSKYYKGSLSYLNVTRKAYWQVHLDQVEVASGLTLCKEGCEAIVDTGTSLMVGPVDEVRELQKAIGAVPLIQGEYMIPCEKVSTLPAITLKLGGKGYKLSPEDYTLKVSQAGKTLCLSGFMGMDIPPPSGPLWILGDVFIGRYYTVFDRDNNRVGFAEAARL

As usually defined, the IC50 is the concentration that gives 50% inhibition. Turning to `Cc1cc(C(F)(F)F)cnc1C(=O)Nc1ccc(F)c([C@@]2(CF)N=C(N)[C@@]3(C)CC[C@@H]2S3(=O)=O)c1` (single isomer, unassigned) [Example 114], the IC50 came to 3460 µM at Cathepsin D (Cat D) (average IC50, first procedure); 0.061 µM at BACE1 (setting [2]); 0.082 µM in experiment [1] (setting [3]).
On to `Cc1cc(C(F)(F)F)cnc1C(=O)Nc1ccc(F)c([C@@]2(CF)N=C(N)[C@]3(C)CC[C@H]2S3(=O)=O)c1` (single isomer, unassigned) [Example 116], for which the half-maximal inhibitory concentration (IC50) stood at 255 µM at Cathepsin D (Cat D) (average IC50, first procedure); 0.044 µM at BACE1 (setting [2]); 0.047 µM in experiment [1] (setting [3]).
The matching figures for `COc1cnc(C(=O)Nc2ccc(F)c([C@@]3(CF)N=C(N)[C@@]4(C)CC[C@@H]3S4(=O)=O)c2)cn1` (single isomer, unassigned) [Example 120]: > 400 µM, 0.049 µM and 0.088 µM.
As to `COc1cnc2c(Nc3ccc(F)c([C@@]4(C)N=C(N)[C@@H]5CCC[C@H]4S5(=O)=O)c3)nccc2n1` (stereo in doubt) [Example 19], the 50% inhibitory concentration (IC50) at Cathepsin D (Cat D) was found to be 1210 µM; at BACE1 (setting [4]) it was 0.323 µM; in experiment [1] (setting [5]), 0.179 µM.
For the compound `COc1cnc2c(Nc3ccc(F)c([C@@]4(C)N=C(N)[C@@]5(C)CCC[C@@H]4S5(=O)=O)c3)nccc2n1` [Example 1, (1R,4R,5S)-2-Amino-4-(2-fluoro-5-((2-methoxypyrido[3,4-b]pyrazin-5-yl)amino)phenyl)-1,4-dimethyl-9-thia-3-azabicyclo[3.3.1]non-2-ene 9,9-dioxide], the IC50 on Cathepsin D (Cat D) turned out to be 45.8 µM; on BACE1 (setting [4]), 0.037 µM; in experiment [1] (setting [5]) it was 0.057 µM.
Consider `COc1cnc2c(Nc3ccc(F)c([C@@]4(C)N=C(N)[C@]5(C)CCC[C@H]4S5(=O)=O)c3)nccc2n1` [Example 2, (1S,4R,5R)-2-Amino-4-(2-fluoro-5-((2-methoxypyrido[3,4-b]pyrazin-5-yl)amino)phenyl)-1,4-dimethyl-9-thia-3-azabicyclo[3.3.1]non-2-ene 9,9-dioxide], for which the IC50 at Cathepsin D (Cat D) amounted to 166 µM; on BACE1 (setting [4]) it was 0.13 µM; in experiment [1] (setting [5]), 0.055 µM.
Taken in the same sequence, the figures for `Cc1cc(Cl)cnc1C(=O)Nc1ccc(F)c([C@@]2(C)N=C(N)[C@@]3(C)CCC[C@@H]2S3(=O)=O)c1` [Example 3, N-(3-((1S,2R,5R)-4-Amino-2,5-dimethyl-9,9-dioxido-9-thia-3-azabicyclo[3.3.1]non-3-en-2-yl)-4-fluorophenyl)-5-chloro-3-methylpicolinamide] were 119 µM, 0.002 µM and 0.007 µM.
As to `Cc1cc(Cl)cnc1C(=O)Nc1ccc(F)c([C@@]2(C)N=C(N)[C@]3(C)CCC[C@H]2S3(=O)=O)c1` [Example 4, N-(3-((1R,2R,5S)-4-Amino-2,5-dimethyl-9,9-dioxido-9-thia-3-azabicyclo[3.3.1]non-3-en-2-yl)-4-fluorophenyl)-5-chloro-3-methylpicolinamide], the IC50 at Cathepsin D (Cat D) was 270 µM; at BACE1 (setting [4]) it was 0.007 µM; in experiment [1] (setting [5]), 0.02 µM.
Consider `Cc1cc(OC(F)F)cnc1C(=O)Nc1ccc(F)c([C@@]2(C)N=C(N)[C@@]3(C)CCC[C@@H]2S3(=O)=O)c1` [Example 5, N-(3-((1S,2R,5R)-4-Amino-2,5-dimethyl-9,9-dioxido-9-thia-3-azabicyclo[3.3.1]non-3-en-2-yl)-4-fluorophenyl)-5-(difluoromethoxy)-3-methylpicolinamide], for which the IC50 at Cathepsin D (Cat D) was found to be 105 µM; at BACE1 (setting [4]), 0.003 µM; in experiment [1] (setting [5]), 0.004 µM.
For the compound `Cc1cc(OC(F)F)cnc1C(=O)Nc1ccc(F)c([C@@]2(C)N=C(N)[C@]3(C)CCC[C@H]2S3(=O)=O)c1` [Example 6, N-(3-((1R,2R,5S)-4-Amino-2,5-dimethyl-9,9-dioxido-9-thia-3-azabicyclo[3.3.1]non-3-en-2-yl)-4-fluorophenyl)-5-(difluoromethoxy)-3-methylpicolinamide], the IC50 on Cathepsin D (Cat D) was found to be 215 µM; at BACE1 (setting [4]), 0.01 µM; in experiment [1] (setting [5]) it was 0.004 µM.
Take `Cc1cc(Cl)cnc1C(=O)Nc1ccc(F)c([C@@]2(C)N=C(N)[C@@]3(C)CCC[C@]2(F)S3(=O)=O)c1` [Example 7, N-(3-((1S,2R,5R)-4-Amino-1-fluoro-2,5-dimethyl-9,9-dioxido-9-thia-3-azabicyclo[3.3.1]non-3-en-2-yl)-4-fluorophenyl)-5-chloro-3-methylpicolinamide]: the half-inhibitory concentration (IC50) at Cathepsin D (Cat D) is 22.6 µM; on BACE1 (setting [4]), 0.007 µM; in experiment [1] (setting [5]), 0.22 µM.
Regarding `Cc1cc(Cl)cnc1C(=O)Nc1ccc(F)c([C@@]2(C)N=C(N)[C@]3(C)CCC[C@@]2(F)S3(=O)=O)c1` [Example 8, N-(3-((1R,2R,5S)-4-Amino-1-fluoro-2,5-dimethyl-9,9-dioxido-9-thia-3-azabicyclo[3.3.1]non-3-en-2-yl)-4-fluorophenyl)-5-chloro-3-methylpicolinamide], the IC50 is 22.7 µM at Cathepsin D (Cat D), 0.004 µM on BACE1 (setting [4]) and 0.113 µM in experiment [1] (setting [5]).
For the compound `Cc1cc(OC(F)F)cnc1C(=O)Nc1ccc(F)c([C@@]2(C)N=C(N)[C@@]3(C)CCC[C@]2(F)S3(=O)=O)c1` [Example 9, N-(3-((1S,2R,5R)-4-Amino-1-fluoro-2,5-dimethyl-9,9-dioxido-9-thia-3-azabicyclo[3.3.1]non-3-en-2-yl)-4-fluorophenyl)-5-(difluoromethoxy)-3-methylpicolinamide], the IC50 was found to be 19 µM at Cathepsin D (Cat D), 0.007 µM on BACE1 (setting [4]) and 0.149 µM in experiment [1] (setting [5]).
For `Cc1cc(OC(F)F)cnc1C(=O)Nc1ccc(F)c([C@@]2(C)N=C(N)[C@]3(C)CCC[C@@]2(F)S3(=O)=O)c1` [Example 10, N-(3-((1R,2R,5S)-4-Amino-1-fluoro-2,5-dimethyl-9,9-dioxido-9-thia-3-azabicyclo[3.3.1]non-3-en-2-yl)-4-fluorophenyl)-5-(difluoromethoxy)-3-methylpicolinamide], the half-maximal inhibitory concentration (IC50) at Cathepsin D (Cat D) worked out at 8.75 µM; at BACE1 (setting [4]) it was 0.009 µM; in experiment [1] (setting [5]), 0.035 µM.
As for `Cc1cc(Cl)cnc1C(=O)Nc1ccc(F)c([C@@]2(C)N=C(N)[C@@]3(C)CCC[C@]2(C)S3(=O)=O)c1` [Example 11, N-(3-((1S,2R,5R)-4-Amino-1,2,5-trimethyl-9,9-dioxido-9-thia-3-azabicyclo[3.3.1]non-3-en-2-yl)-4-fluorophenyl)-5-chloro-3-methylpicolinamide], the values for the 50% inhibitory concentration (IC50) (at Cathepsin D (Cat D); on BACE1 (setting [4]); in experiment [1] (setting [5])) were 51.5 µM, 0.006 µM and 0.031 µM, respectively.
With `Cc1cc(Cl)cnc1C(=O)Nc1ccc(F)c([C@@]2(C)N=C(N)[C@]3(C)CCC[C@@]2(C)S3(=O)=O)c1` [Example 12, N-(3-((1R,2R,5S)-4-Amino-1,2,5-trimethyl-9,9-dioxido-9-thia-3-azabicyclo[3.3.1]non-3-en-2-yl)-4-fluorophenyl)-5-chloro-3-methylpicolinamide], the figures for the IC50 (at Cathepsin D (Cat D); on BACE1 (setting [4]); in experiment [1] (setting [5])) were 29.7 µM, 0.005 µM and 0.033 µM, respectively.
